Results on twelve molecules are retold here after ChEMBL document CHEMBL1201862, “PubChem BioAssay data set” (2004).

Some test systems named below: SN12C; U-251; UO-31; OVCAR-3; KM12; SW-620; UACC-62; ACHN; OVCAR-4; TK-10; SF-539; HCT-15; M14; RXF 393; SF-295; SNB-19; LOX IMVI; SK-MEL-2; NCI-H522.
Common to all, as to test: NCI tumour cell line growth inhibition, 48 h

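Five compound concentrations were applied to cells in 96-well plates for 48 hours; endpoints were derived by simple linear interpolation of the resulting dose-response curve. Abbreviation: GI50, concentration required for 50% inhibition of growth.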 Calls of active or inactive are those of the source. Cut-off read from the data, not from the text of the source: active = GI50 up to about 1.1 µM and inactive = higher. Bounds are passed on as bounds.

On to `Cn1cnc([N+](=O)[O-])c1Sc1nc2cccnc2s1`, for which the GI50 with SN12C is 17.8 µM (inactive); in the assay with U-251, 24 µM (inactive); in the assay with UO-31, 17.1 µM (inactive); with OVCAR-3, 14.6 µM (inactive); in the assay on KM12 it was 31.6 µM (inactive); with SW-620, 12 µM (inactive). Besides, the GI50 is 17.5 µM (inactive) in the assay with UACC-62; 24.5 µM (inactive) in the assay with ACHN; 12.1 µM (inactive) in the assay on OVCAR-4; 15.7 µM (inactive) in the assay with TK-10; 19.8 µM (inactive) in the assay with SF-539; 11.6 µM with HCT-15. Further, the GI50 with M14 was 13.7 µM (inactive); with RXF 393 it was 17.8 µM (inactive); in the assay with SF-295, > 100 µM (inactive); in the assay with SNB-19 it was 78.9 µM (inactive); in the assay with LOX IMVI, 25.1 µM (inactive).

Regarding `CC(=O)C1(O)CCC2(O)C3(O)CC=C4CC(O)CCC4(C)C3CC(OC(=O)c3ccc(O)cc3)C12C.COC1CC(OC2C(C)OC(OC3C(C)OC(OC4CCC5(C)C(=CCC6(O)C5CC(OC(=O)c5ccc(O)cc5)C5(C)C(O)(C(C)=O)CCC65O)C4)CC3OC)CC2OC)OC(C)C1O` (stereo not given), the GI50 in the assay on SN12C is 31.3 µM (inactive); in the assay with U-251 it was 22.5 µM (inactive); in the assay with UO-31, 18.3 µM (inactive); in the assay with OVCAR-3 it was 20.3 µM (inactive); with SW-620, 42.1 µM (inactive); in the assay with UACC-62, 23.4 µM (inactive). Moreover, the GI50 in the assay with ACHN was 30.1 µM (inactive); in the assay with TK-10, 60.8 µM (inactive); with SF-539, 24.5 µM (inactive); in the assay on HCT-15, 33.6 µM; in the assay on RXF 393, 44.4 µM (inactive); in the assay on SK-MEL-2 it was 20.4 µM (inactive). The GI50 in the assay on SF-295 was 36 µM (inactive); in the assay with SNB-19 it was 33.6 µM (inactive); with LOX IMVI, 20.5 µM (inactive).

In the case of `CCc1cccc(C(C)CC)c1NC(=O)CC1C(=O)Nc2ccccc2[S+]1[O-]` (stereo not given), the GI50 in the assay on SN12C is 91.2 µM (inactive); in the assay with U-251 it was 14.9 µM (inactive); in the assay on UO-31, > 100 µM (inactive); in the assay with OVCAR-3 it was 50.7 µM (inactive); with SW-620, 39.5 µM (inactive); in the assay on UACC-62 it was 10 µM (inactive). Besides, the GI50 in the assay with ACHN is 44.2 µM (inactive); in the assay on OVCAR-4, 18.3 µM (inactive); with TK-10, > 100 µM (inactive); in the assay on SF-539 it was 23 µM (inactive); in the assay with HCT-15 it was 31 µM; with M14, 22 µM (inactive). In addition, the GI50 in the assay with RXF 393 was 13.9 µM (inactive); with SK-MEL-2 it was 40.5 µM (inactive); in the assay on SF-295, > 100 µM (inactive); in the assay with SNB-19, 28.5 µM (inactive); in the assay with LOX IMVI, 28.2 µM (inactive).

Consider `Cc1c(C(=O)Nc2ccc(Cl)cc2)nc(N)nc1-c1cccc(Cl)c1`, for which the GI50 is > 100 µM (inactive) in the assay with SN12C; > 100 µM (inactive) in the assay on U-251; > 100 µM (inactive) in the assay with UO-31; > 100 µM (inactive) in the assay on OVCAR-3; 46.6 µM (inactive) in the assay on KM12; 62.7 µM (inactive) with SW-620. The GI50 in the assay with UACC-62 was > 100 µM (inactive); with ACHN it was > 100 µM (inactive); with OVCAR-4 it was > 100 µM (inactive); in the assay with SF-539 it was > 100 µM (inactive); with M14 it was 55.7 µM (inactive); with RXF 393 it was 39.5 µM (inactive). For the same molecule, the GI50 was > 100 µM (inactive) in the assay on SF-295, > 100 µM (inactive) with SNB-19 and > 10 µM (inactive) with LOX IMVI.

As to `Nc1c(Cl)ncnc1NCCCCCCCCCCCCNc1ncnc(Cl)c1N`, the GI50 in the assay on SN12C is 3.13 µM (inactive); in the assay on U-251 it was 0.0857 µM (active); in the assay on UO-31 it was 1.05 µM (active); in the assay with OVCAR-3 it was < 0.01 µM (active); in the assay with KM12, 3.12 µM (inactive); in the assay with SW-620 it was 2.69 µM (inactive). Further, the GI50 in the assay with UACC-62 is 2.05 µM (inactive); in the assay with OVCAR-4, 1.99 µM (inactive); with TK-10 it was 4.6 µM (inactive); in the assay with SF-539, 3.37 µM (inactive); in the assay with HCT-15, 1.88 µM; in the assay with M14 it was 3.19 µM (inactive). Further, the GI50 was 1.54 µM (inactive) in the assay with RXF 393; 2.35 µM (inactive) in the assay on SK-MEL-2; 1.01 µM (active) with SF-295; 4.57 µM (inactive) in the assay on SNB-19; < 0.01 µM (active) with LOX IMVI.

Turning to `CN[C@H](C)[C@@H](OC)c1ccccc1`, the GI50 in the assay on SN12C, in the assay on U-251, in the assay with UO-31, with OVCAR-3, with KM12 and in the assay with SW-620 was > 100 µM (inactive) each time. Moreover, the GI50 in the assay on UACC-62 is > 100 µM (inactive); in the assay with ACHN, > 100 µM (inactive); in the assay with OVCAR-4 it was > 100 µM (inactive); in the assay on TK-10, > 100 µM (inactive); with HCT-15, over 100 µM; with M14 it was > 100 µM (inactive). The GI50 in the assay with RXF 393, in the assay on SK-MEL-2, with SF-295, in the assay with SNB-19 and in the assay with LOX IMVI was > 100 µM (inactive) throughout.

Turning to `CCN(CC)CCNC(=O)c1ccccc1Nc1c(Cl)cccc1Cl`, the GI50 in the assay on SN12C is 13.7 µM (inactive); with U-251 it was 6.56 µM (inactive); in the assay with UO-31 it was 9.95 µM (inactive); with SW-620, 15.3 µM (inactive); in the assay on UACC-62, 17.1 µM (inactive); in the assay on ACHN, 17.5 µM (inactive). In addition, the GI50 was 14.8 µM (inactive) in the assay with OVCAR-4; 12.1 µM (inactive) in the assay with TK-10; 17 µM (inactive) with SF-539; 12.6 µM with HCT-15; 18.1 µM (inactive) in the assay on M14; 12.3 µM (inactive) with RXF 393. For the same molecule, the GI50 was 16.4 µM (inactive) with SNB-19 and 11.3 µM (inactive) in the assay with LOX IMVI.

Regarding `N=C(N)NS(=O)(=O)c1ccc(NCc2c3ccccc3[n+]([O-])c3ccccc23)cc1`, the GI50 in the assay on SN12C is 15 µM (inactive); in the assay with U-251, 16.6 µM (inactive); in the assay on UO-31, 15.2 µM (inactive); with OVCAR-3, 46.1 µM (inactive); with NCI-H522 it was 29.9 µM (inactive); in the assay with KM12, 30.4 µM (inactive). In addition, the GI50 was 16.4 µM (inactive) in the assay with SW-620; 22.5 µM (inactive) in the assay with UACC-62; 17 µM (inactive) in the assay with ACHN; 23.8 µM (inactive) in the assay on OVCAR-4; > 100 µM (inactive) with TK-10; 18.4 µM in the assay on HCT-15. Moreover, the GI50 with M14 was 46.6 µM (inactive); in the assay on SK-MEL-2, 40.2 µM (inactive); with SF-295, 18.7 µM (inactive); in the assay with SNB-19 it was 18.8 µM (inactive); with LOX IMVI it was 11.1 µM (inactive).

Consider `CN(C)c1[se]nc2c1c(=O)n(C)c(=O)n2C`, for which the GI50 with SN12C, in the assay with U-251, in the assay on UO-31, in the assay on OVCAR-3, with NCI-H522 and in the assay with KM12 was > 100 µM (inactive) throughout. Also, the GI50 in the assay with SW-620, with UACC-62, in the assay with ACHN, in the assay with OVCAR-4, in the assay on TK-10 and with SF-539 was > 100 µM (inactive) in each case. In addition, the GI50 in the assay with HCT-15 was over 100 µM; with SK-MEL-2 it was > 100 µM (inactive); in the assay on SF-295 it was > 100 µM (inactive); in the assay on SNB-19, > 100 µM (inactive); in the assay with LOX IMVI, > 100 µM (inactive).

On to `Cc1ccc(S(=O)(=O)NC2CCCCO2)cc1` (stereo not given), for which the GI50 in the assay on SN12C, in the assay on U-251, in the assay on UO-31, in the assay on OVCAR-3, in the assay on NCI-H522 and in the assay with KM12 was > 100 µM (inactive) each time. In addition, the GI50 in the assay on SW-620 was > 100 µM (inactive); in the assay with UACC-62, > 100 µM (inactive); in the assay on ACHN, > 100 µM (inactive); in the assay on OVCAR-4, > 100 µM (inactive); with SF-539, > 100 µM (inactive); in the assay with HCT-15 it was over 100 µM. For the same molecule, the GI50 in the assay on M14, in the assay with RXF 393, in the assay on SNB-19 and in the assay on LOX IMVI was > 100 µM (inactive) in each case.

Turning to `O=C(NC1CCC[C@H]1OC(=O)c1ccccc1)c1ccccc1` (stereo not given in full), the GI50 was 66.4 µM (inactive) in the assay with SN12C; > 100 µM (inactive) in the assay on U-251; 16.1 µM (inactive) in the assay with UO-31; 16.2 µM (inactive) in the assay with OVCAR-3; 69.8 µM (inactive) in the assay on KM12; > 100 µM (inactive) with SW-620. Moreover, the GI50 is 50.9 µM (inactive) with UACC-62; > 10 µM (inactive) in the assay with ACHN; 30.8 µM (inactive) in the assay with OVCAR-4; > 100 µM (inactive) with TK-10; > 100 µM (inactive) with SF-539; > 100 µM (inactive) in the assay with M14. In addition, the GI50 in the assay on RXF 393, in the assay with SK-MEL-2, in the assay on SF-295 and in the assay with SNB-19 was > 100 µM (inactive) throughout.

`COc1cc2c(c(OC)c1OC)-c1ccc(SC)c(=O)cc1[C@@H](NC(=O)c1ccc([N+](=O)[O-])cc1)CC2`: the GI50 with SN12C was 0.00957 µM (active); in the assay on U-251, 0.025 µM (active); with UO-31, 0.00579 µM (active); in the assay with OVCAR-3 it was < 0.0025 µM (active); in the assay with KM12, < 0.0025 µM (active); in the assay on SW-620, < 0.0025 µM (active). Also, the GI50 with UACC-62 is 0.00853 µM (active); with ACHN, 0.00555 µM (active); in the assay on OVCAR-4 it was 0.123 µM (active); in the assay with TK-10, 3.13 µM (inactive); in the assay with SF-539, < 0.0025 µM (active); with HCT-15, 0.00843 µM. Besides, the GI50 is < 0.0025 µM (active) in the assay with M14; < 0.0025 µM (active) with RXF 393; 0.0045 µM (active) in the assay with SK-MEL-2; < 0.0025 µM (active) in the assay on SF-295; < 0.0025 µM (active) in the assay on LOX IMVI.
